# In patent US4845215A, “Purine derivative” (Nippon Kayaku Kabushiki Kaisha, priority 1987, dated 1989):
# Tests used:
# [1] = Acute toxicity (LD50) on mouse; assay type: in vivo; settings: in vivo, iv
# Description: (§1) (3) The acute toxicity (LD50) of the compound of formula (1) on mouse was 200 mg/kg (iv) or above which is weaker than the toxicities of various known nucleic acid type antibiotics.
# [2] = system: mouse; assay: Acute toxicity (LD50) on mouse; assay type: in vivo; settings: iv
# Description: as §1
# [3] = system: Herpes Simplex virus type-II; assay: Antiviral activity by CPE (cytopathic effect) of Herpes Simplex virus type-II on Vevo cell; assay type: cell-based; settings: read-out: Inhibition rate (%)
# Description: (a) Its antiviral activity was measured by observing CPE (cytopathic effect) of Herpes Simplex virus type-II on the Vevo cell originated from the kidney of Cercopithecus aetiops.
# [4] = Solubilities into solvents; assay type: physicochemical
# Description: (8) Solubilities into solvents
# [5] = system: MT-4 cell; assay: Cytopathic effect on MT-4 cell without virus (microscopy); assay type: cell-based; settings: summary in words
# Description: (§2) About 100,000 cells/ml of MT-4 cell was introduced into a tray having 24 holes. Further, 100 microliters of a solution containing a predetermined quantity of the compound of the present invention was added, and then it was cultured in a 5% (v/v) carbon dioxide gas incubator at 37° C. for 5 hours. Subsequently, 10^3 to 10^4 infection units of HIV was added and cultured for 4 days. Then, a part of the culture fluid was applied to a slide glass and immobilized with acetone, and development of virus antigen was examined by the fluorescent antibody technique. Cytopathic effect of the compound of the invention on MT-4 cell was examined microscopically without adding virus.
# [6] = system: Human Immunodeficiency Virus (HIV); assay: Anti-HIV activity: development of virus antigen in MT-4 cell (fluorescent antibody technique); assay type: cell-based; settings: for Development of virus antigen (%): 4 days, DMSO only 80 to 90%
# Description: (b) Anti-"Human Immunodeficiency Virus (HIV)" activity.
# as §2, with “technique.” for “technique. Cytopathic effect of the compound of the invention on MT-4 cell was examined microscopically without adding virus.”
# A serum of an AIDS patient was used as the primary antibody of the fluorescent antibody technique, and FITC-labelled anti-human IgG was used as its secondary antibody.
# The compound of the present invention was used in the form of a solution
# in DMSO. In DMSO itself only, development of virus antigen was 80 to 90%.
# [7] = system: T Lymphocyte (spleen cell of BALB/C mouse); assay: Inhibition of Blastogenesis Reaction of T Lymphocyte by Con A (3H-thymidine take-up); assay type: cell-based; settings: Con A 5 micrograms/liter, 37° C., 72 hours
# Description: Inhibition of Blastogenesis Reaction of T Lymphocyte by Con A.
# Spleen cell of BALB/C mouse was dividingly poured into a microplate so that the number of cells came to 2×10^5 /0.2 ml/well. To each of all the wells other than control group was added the compound of the present invention having varied concentration. Further, 5 […] of Con A was added to all the wells. Then, the cell suspensions were cultured at 37° C. for 72 hours in 5% carbon dioxide gas incubator. The blastogenesis reaction of lymphocyte was examined by adding 1μCi/well of ^3 H-thymidine 6 hours before the completion of the culture and measuring its take-up into cultured cells by means of liquid scintillation counter. If the take-up count at the time when only Con A was added was expressed by Adpm and the take-up count at the time when Con A and drug were added was expressed by Bdpm, (1 - Bdpm/Adpm)×100 could be regarded as the inhibitory rate of each drug on blastogenesis.
structure (smiles),measurement,setting,value
"O=c1[nH]cnc2c1ncn2[C@@H]1O[C@H](CO)[C@H]1CO [compound of formula (1), 9-[(2'R,3'R,4'S)-3',4'-bis-(hydroxymethyl)-2'-oxetanyl]-hypoxanthine]",LD50,[1],≥ 200 mg/kg
same,acute toxicity compared with various known nucleic acid type antibiotics,[2],weaker
same,inhibition at 31.3 µg/disc,[3]; 31.3 mcg/well,8%
same,inhibition at 62.5 µg/disc,[3]; 62.5 mcg/well,33%
same,inhibition at 125 µg/disc,[3]; 125 mcg/well,75%
same,Solubility,[4]; acetone,insoluble or only slightly soluble
same,Solubility,[4]; benzene,insoluble or only slightly soluble
same,Solubility,[4]; dimethyl sulfoxide,soluble
same,Solubility,[4]; ether,insoluble or only slightly soluble
same,Solubility,[4]; ethyl acetate,insoluble or only slightly soluble
same,Solubility,[4]; methanol,soluble
same,Solubility,[4]; propanol,insoluble or only slightly soluble
same,Solubility,[4]; water,soluble
same,cytopathic effect (summary),[5],small
same,Development of virus antigen (%),[6]; 1 μg/ml,40%
same,Development of virus antigen (%),[6]; 10 μg/ml,10%
same,Development of virus antigen (%),[6]; 100 μg/ml,2%
same,growth-inhibitory action of HIV,[6]; summary in words,marked
same,IC50,[7],14.5 µg/mL
